Like-named read-outs stand apart in the source and are kept apart here.
What was measured:
[1] = XTR5 vs Texanol coating in EPS 2708 acrylic emulsion polymer; conditions: EPS 2708 coating
Source text: (§1) Bis(1-butoxypropan-2-yl) carbonate (TreviSol, XTR5) was used as a direct replacement for other typical coalescents, such as, Texanol™, as follows.

[2] = XTR5 vs Texanol paint in Raycryl 1526 acrylic emulsion polymer; conditions: Raycryl 1526 paint
Source text: as §1

[3] = XTR5 vs Texanol coating in Raycryl 1001 acrylic emulsion polymer; conditions: Raycryl 1001 coating
Source text: as §1

[4] = Physical/chemical properties of XTR5

SMILES	Specific Gravity [1] [g/cm3]	VOC (Without Water) [1] [g/L]	Viscosity [1] [KU]	Volume Solid % [1] [%]	Weight Solid % [1] [%]	Specific Gravity [2] [g/cm3]	VOC (Without Water) [2] [g/L]	Viscosity [2] [KU]	Volume Solid % [2] [%]	Weight Solid % [2] [%]	Specific Gravity [3] [g/cm3]	VOC (Without Water) [3] [g/L]	Viscosity [3] [KU]	Volume Solid % [3] [%]	Weight Solid % [3] [%]	further results
CC(C)C(=O)OCC(C)(C)C(O)C(C)C (centres unmarked) [Texanol, 2-methyl-, 3-hydroxy-2,2,4-trimethylpentyl ester, reference compound]	1.33	103.3	95	41.0	54.5	1.25	95.0	90	40.91	51.91	1.32	54.6	95	41.1	54.6	–
CCCCOCC(C)OC(=O)OC(C)COCCCC (centres unmarked) [XTR5, bis(1-butoxypropan-2-yl) carbonate]	1.33	59.6	95	41.0	54.5	1.25	45.0	90	40.91	51.91	1.32	1.5	95	41.1	54.6	Clarity [4]: Clear; Colour (Alpha, max) [4]: 10; Density [4]: (7.94 lb/gal); Evaporation Rate [4]: Slow and Close to Texanol; Partial Coefficient (Range) [4]: 0.7-2.0; Texanol Solubility [4]: Soluble; VOC [4]: 0 g/L; Volatility (%) [4]: 100%; Water Solubility [4]: Not Soluble; Specific Gravity ([4]; @15.5°): 0.956; Density ([4]; @ 20° C.): 0.951 g/mL; Solubility in H2O ([4]; @ 25° C.): Insoluble; Vapour Pressure ([4]; @ 25° C.): 0.005 mm Hg; Viscosity ([4]; @ 25° C.): 0.58 cP; Vapour Density (mm Hg Air = 1) ([4]; Air = 1): 0.95; TGA Weight Loss ([4]; Ambient 115-240° C.): 97.94%; Evaporation Rate (n-Butyl Acetate = 1) ([4]; n-Butyl Acetate = 1): 0.0004

Reference: patent US11708500B2, “Solvent compounds for use as coalescents” (TBF ENVIRONMENTAL TECHNOLOGY INC., priority 2017, dated 2023)
